Test results reported in patent publication US12371428B2 (Exelixis, Inc., priority 2019, dated 2025).
Where a name gives a salt, the structure may show the parent alone.

Key:
[1] = target: KDR (phospho-KDR, VEGF165-stimulated HUVEC cells) (Homo sapiens (Human), UniProt P35968); experiment: KDR autophosphorylation ELISA in HUVEC cells (Example G); assay type: cell-based; settings: cellular activity; KDR autophosphorylation ELISA in HUVEC cells
Method in brief: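 First, endothelial cells were cultured a day, then kept without serum for another day. Next came 1 h with serially diluted compound, a brief 5 min VEGF165 stimulus (100 ng/mL), rapid lysis, and ELISA detection of receptor phosphorylation relative to stimulated and non-stimulated controls.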

[2] = target: Human MER (residues 528-999) (Homo sapiens (Human), UniProt Q12866); experiment: Human Mer kinase assay, HTRF KinEase (Example C-2); assay type: biochemical
Method in brief: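 Recombinant MER 528-999 (1 ng/well) in buffer with 5 mM MgCl2 and 1 mM DTT was reacted with biotinylated peptide and ATP at Km (40 μM) for 60 min at room temperature. EDTA stop with SA-XL665 and Eu3+ TK antibody, then 665/620 nm HTRF read; IC50 from 4-parameter fit.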

[3] = protocol of Example C-2 (other compounds)

KDR (phospho-KDR, VEGF165-stimulated HUVEC cells), sequence (P35968 20-1356): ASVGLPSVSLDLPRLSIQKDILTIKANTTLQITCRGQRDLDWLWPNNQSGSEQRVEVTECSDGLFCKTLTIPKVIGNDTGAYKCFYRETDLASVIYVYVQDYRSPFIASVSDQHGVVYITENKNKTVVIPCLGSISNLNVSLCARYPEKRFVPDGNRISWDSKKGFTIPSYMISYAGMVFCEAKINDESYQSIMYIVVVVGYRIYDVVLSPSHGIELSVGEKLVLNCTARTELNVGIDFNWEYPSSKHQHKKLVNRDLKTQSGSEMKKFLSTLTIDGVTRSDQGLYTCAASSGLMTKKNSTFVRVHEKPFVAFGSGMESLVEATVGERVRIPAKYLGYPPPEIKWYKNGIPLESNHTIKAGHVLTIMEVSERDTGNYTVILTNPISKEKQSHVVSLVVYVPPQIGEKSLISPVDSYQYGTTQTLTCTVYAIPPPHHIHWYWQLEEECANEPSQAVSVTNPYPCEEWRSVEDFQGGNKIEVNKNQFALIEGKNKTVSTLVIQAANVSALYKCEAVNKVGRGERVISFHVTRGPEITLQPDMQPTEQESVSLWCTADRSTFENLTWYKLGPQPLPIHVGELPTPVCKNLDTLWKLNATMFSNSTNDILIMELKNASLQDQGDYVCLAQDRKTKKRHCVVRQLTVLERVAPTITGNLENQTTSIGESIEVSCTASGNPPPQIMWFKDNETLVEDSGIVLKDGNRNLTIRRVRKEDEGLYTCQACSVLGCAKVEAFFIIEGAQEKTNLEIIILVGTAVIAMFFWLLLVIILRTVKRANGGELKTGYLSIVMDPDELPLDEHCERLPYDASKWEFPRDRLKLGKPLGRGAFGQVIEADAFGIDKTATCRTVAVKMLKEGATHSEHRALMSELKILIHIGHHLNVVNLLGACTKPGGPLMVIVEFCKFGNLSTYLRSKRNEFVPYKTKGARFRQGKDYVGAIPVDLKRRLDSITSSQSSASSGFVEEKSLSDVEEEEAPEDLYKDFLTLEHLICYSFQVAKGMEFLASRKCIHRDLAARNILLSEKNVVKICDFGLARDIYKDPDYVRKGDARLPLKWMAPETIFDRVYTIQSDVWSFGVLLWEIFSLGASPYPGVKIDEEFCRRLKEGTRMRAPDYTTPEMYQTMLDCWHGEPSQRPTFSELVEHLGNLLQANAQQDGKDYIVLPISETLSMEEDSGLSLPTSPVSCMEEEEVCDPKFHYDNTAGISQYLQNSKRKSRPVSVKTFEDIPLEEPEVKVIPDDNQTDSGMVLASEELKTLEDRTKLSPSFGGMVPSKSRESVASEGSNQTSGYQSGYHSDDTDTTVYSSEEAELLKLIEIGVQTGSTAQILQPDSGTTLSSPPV
Human MER (residues 528-999), sequence (Q12866 528-999): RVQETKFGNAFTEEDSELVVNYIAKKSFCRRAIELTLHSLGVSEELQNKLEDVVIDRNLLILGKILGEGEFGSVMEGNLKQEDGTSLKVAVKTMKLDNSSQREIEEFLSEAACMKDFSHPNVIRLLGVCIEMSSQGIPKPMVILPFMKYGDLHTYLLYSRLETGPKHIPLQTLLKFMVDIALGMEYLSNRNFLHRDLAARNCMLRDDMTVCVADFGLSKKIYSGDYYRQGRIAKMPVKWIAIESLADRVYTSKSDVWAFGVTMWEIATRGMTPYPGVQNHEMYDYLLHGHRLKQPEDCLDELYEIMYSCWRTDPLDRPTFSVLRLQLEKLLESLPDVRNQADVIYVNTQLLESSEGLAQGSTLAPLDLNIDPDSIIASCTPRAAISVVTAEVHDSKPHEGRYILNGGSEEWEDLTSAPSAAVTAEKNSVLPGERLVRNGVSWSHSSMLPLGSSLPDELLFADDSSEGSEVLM

Row | SMILES | IC50 [1] [nM] | IC50 [2, 3] [nM] | IC50 ([2]; protocol of Example C-2) [nM]
1 | COc1cc2nccc(Oc3ccc(NC(=O)c4cnc(C)c(-c5ccc(F)cc5)c4O)cc3F)c2nc1OC [Compound 28, N-[4-[(6,7-Dimethoxy-1,5-naphthyridin-4-yl)oxy]-3-fluorophenyl]-5-(4-fluorophenyl)-4-hydroxy-6-methylpyridine-3-carboxamide] | < 100 | < 100 | –
2 | COc1cc2nccc(Oc3ccc(NC(=O)c4c(C)nc(C)c(-c5ccc(F)cc5)c4O)cc3)c2nc1OC [Compound 173, N-[4-[(6,7-Dimethoxy-1,5-naphthyridin-4-yl)oxy]phenyl]-5-(4-fluorophenyl)-4-hydroxy-2,6-dimethylpyridine-3-carboxamide] | < 100 | < 100 | –
3 | COc1cc2nccc(Oc3ccc(NC(=O)c4cnc(N)n(-c5ccc(F)cc5)c4=O)cc3F)c2nc1OC [Compound 565, 2-Amino-N-[4-[(6,7-dimethoxy-1,5-naphthyridin-4-yl)oxy]-3-fluorophenyl]-1-(4-fluorophenyl)-6-oxopyrimidine-5-carboxamide] | < 100 | – | < 100
4 | COCCOc1nc2c(Oc3ccc(NC(=O)c4cnc(C)c(-c5ccc(F)cc5C)c4O)cc3F)ccnc2cc1OC [Compound 144, N-[3-Fluoro-4-[[7-methoxy-6-(2-methoxyethoxy)-1,5-naphthyridin-4-yl]oxy]phenyl]-5-(4-fluoro-2-methylphenyl)-4-hydroxy-6-methylpyridine-3-carboxamide] | < 100 | < 100 | –
5 | Cc1nc2c(Oc3ccc(NC(=O)c4cn(C(C)C)c(C)c(-c5ccc(F)cc5)c4=O)cc3F)ccnc2cc1-c1cnn(C(F)F)c1 [Compound 614, N-[4-[[7-[1-(Difluoromethyl)pyrazol-4-yl]-6-methyl-1,5-naphthyridin-4-yl]oxy]-3-fluorophenyl]-5-(4-fluorophenyl)-6-methyl-4-oxo-1-propan-2-ylpyridine-3-carboxamide hydrochloride] | > 300 | – | < 100
6 | COc1cc2c(Oc3ccc(NC(=O)c4cnc(C)c(-c5ccc(F)cc5)c4O)cc3F)ccnc2cn1 [Compound 639, N-[3-fluoro-4-[(6-methoxy-1,7-naphthyridin-4-yl)oxy]phenyl]-5-(4-fluorophenyl)-4-hydroxy-6-methylpyridine-3-carboxamide] | < 100 | – | < 100
7 | COc1cc2nccc(Oc3ccc(NC(=O)c4cnc(C)c(-c5ccc(F)cc5C)c4O)cc3)c2nc1OC [Compound 174, N-[4-[(6,7-Dimethoxy-1,5-naphthyridin-4-yl)oxy]phenyl]-5-(4-fluoro-2-methylphenyl)-4-hydroxy-6-methylpyridine-3-carboxamide] | < 100 | < 100 | –
8 | COc1cc2nccc(Oc3ccc(NC(=O)c4cn(C(C)(C)C)c(C)c(-c5ccc(F)cc5)c4=O)cc3F)c2nc1OC [Compound 139, 1-tert-Butyl-N-[4-[(6,7-dimethoxy-1,5-naphthyridin-4-yl)oxy]-3-fluorophenyl]-5-(4-fluorophenyl)-6-methyl-4-oxopyridine-3-carboxamide] | > 300 | < 100 | –
9 | COc1nc2c(Oc3ccc(NC(=O)c4cn(C(C)C)cc(-c5ccc(F)cc5)c4=O)cc3F)ccnc2cc1Br [Compound 131, N-[4-[(7-Bromo-6-methoxy-1,5-naphthyridin-4-yl)oxy]-3-fluorophenyl]-5-(4-fluorophenyl)-4-oxo-1-propan-2-ylpyridine-3-carboxamide] | > 300 | < 100 | –
10 | Cc1nc2c(Oc3ccc(NC(=O)c4cn(C(C)C)c(C)c(-c5ccc(F)cc5)c4=O)cc3)ccnc2cc1-c1cnn(C(F)F)c1 [Compound 612, N-[4-[[7-[1-(Difluoromethyl)pyrazol-4-yl]-6-methyl-1,5-naphthyridin-4-yl]oxy]phenyl]-5-(4-fluorophenyl)-6-methyl-4-oxo-1-propan-2-ylpyridine-3-carboxamide hydrochloride] | > 300 | – | < 100
11 | COc1cnc2c(Oc3ccc(NC(=O)c4cn(C(C)C)c(C)c(-c5ccc(F)cc5)c4=O)cc3F)ccnc2c1 [Compound 121, N-[3-Fluoro-4-[(7-methoxy-1,5-naphthyridin-4-yl)oxy]phenyl]-5-(4-fluorophenyl)-6-methyl-4-oxo-1-propan-2-ylpyridine-3-carboxamide] | > 300 | < 100 | –
12 | CCn1cc(C(=O)Nc2ccc(Oc3ccnc4cc(OC)cnc34)c(F)c2)c(=O)c(-c2ccc(F)cc2)c1C [Compound 164, 1-Ethyl-N-[3-fluoro-4-[(7-methoxy-1,5-naphthyridin-4-yl)oxy]phenyl]-5-(4-fluorophenyl)-6-methyl-4-oxopyridine-3-carboxamide] | > 300 | < 100 | –
13 | CNC(=O)c1cnc2c(Oc3ccc(NC(=O)c4cnc(C)c(-c5ccc(F)cc5)c4O)cc3F)ccnc2c1 [Compound 578, 8-[2-Fluoro-4-[[5-(4-fluorophenyl)-4-hydroxy-6-methylpyridine-3-carbonyl]amino]phenoxy]-N-methyl-1,5-naphthyridine-3-carboxamide] | > 300 | – | < 100
14 | Cc1c(-c2ccc(F)cc2)c(=O)c(C(=O)Nc2ccc(Oc3ccnc4cc(F)cnc34)c(F)c2)cn1C(C)C [Compound 162, N-[3-Fluoro-4-[(7-fluoro-1,5-naphthyridin-4-yl)oxy]phenyl]-5-(4-fluorophenyl)-6-methyl-4-oxo-1-propan-2-ylpyridine-3-carboxamide] | > 300 | 100 to 300 | –
15 | COc1cc2nccc(Oc3ccc(NC(=O)c4cn(C(C)C)cc(-c5ccc(F)cc5)c4=O)cc3)c2nc1OC [Compound 122, N-[4-[(6,7-Dimethoxy-1,5-naphthyridin-4-yl)oxy]phenyl]-5-(4-fluorophenyl)-4-oxo-1-propan-2-ylpyridine-3-carboxamide] | 100 to 300 | < 100 | –
16 | COc1ccc2nccc(Oc3ccc(NC(=O)c4cnc(C)c(-c5ccc(F)cc5)c4O)cc3F)c2n1 [Compound 172, N-[3-Fluoro-4-[(6-methoxy-1,5-naphthyridin-4-yl)oxy]phenyl]-5-(4-fluorophenyl)-4-hydroxy-6-methylpyridine-3-carboxamide] | < 100 | < 100 | –
17 | Cc1nc2c(Oc3ccc(NC(=O)c4cnc(C)c(-c5ccc(F)cc5)c4O)cc3)ccnc2cc1-c1cccnc1 [Compound 616, 5-(4-Fluorophenyl)-4-hydroxy-6-methyl-N-[4-[(6-methyl-7-pyridin-3-yl-1,5-naphthyridin-4-yl)oxy]phenyl]pyridine-3-carboxamide hydrochloride] | < 100 | – | < 100
18 | Cc1ncc(C(=O)Nc2ccc(Oc3ccnc4cc(C(C)C)cnc34)cc2)c(O)c1-c1ccc(F)cc1 [Compound 594, 5-(4-Fluorophenyl)-4-hydroxy-6-methyl-N-[4-[(7-propan-2-yl-1,5-naphthyridin-4-yl)oxy]phenyl]pyridine-3-carboxamide] | < 100 | – | < 100
19 | CNc1nc2c(Oc3ccc(NC(=O)c4cn(C(C)C)c(C)c(-c5ccc(F)cc5)c4=O)cc3F)ccnc2cc1OC [Compound 582, N-[3-Fluoro-4-[[7-methoxy-6-(methylamino)-1,5-naphthyridin-4-yl]oxy]phenyl]-5-(4-fluorophenyl)-6-methyl-4-oxo-1-propan-2-ylpyridine-3-carboxamide] | 100 to 300 | – | < 100
